Format in all cases: biochemical
For one experiment, the target named is T1, Lck (Homo sapiens, UniProt P06239).
T1 construct: Kinases are expressed as either kinase domains or full length constructs; made in house
Nature of the experiment: Kinase inhibition assay (33P transfer), Lck. Particulars: read-out: Lck-1. The procedure, abridged:
(§1)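 33P-ATP transfer to coated synthetic polymer substrates; acid wash (0.5% H3PO4), scintillant, liquid scintillation count. Enzymes: His- or GST-fusion kinases from E. coli or High Five insect cells.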

The target in another experiment is T2, Zap-70 (Homo sapiens, UniProt P43403).
T2 construct: Kinases are expressed as either kinase domains or full length constructs; made in house
T2 sequence (P43403 1-619): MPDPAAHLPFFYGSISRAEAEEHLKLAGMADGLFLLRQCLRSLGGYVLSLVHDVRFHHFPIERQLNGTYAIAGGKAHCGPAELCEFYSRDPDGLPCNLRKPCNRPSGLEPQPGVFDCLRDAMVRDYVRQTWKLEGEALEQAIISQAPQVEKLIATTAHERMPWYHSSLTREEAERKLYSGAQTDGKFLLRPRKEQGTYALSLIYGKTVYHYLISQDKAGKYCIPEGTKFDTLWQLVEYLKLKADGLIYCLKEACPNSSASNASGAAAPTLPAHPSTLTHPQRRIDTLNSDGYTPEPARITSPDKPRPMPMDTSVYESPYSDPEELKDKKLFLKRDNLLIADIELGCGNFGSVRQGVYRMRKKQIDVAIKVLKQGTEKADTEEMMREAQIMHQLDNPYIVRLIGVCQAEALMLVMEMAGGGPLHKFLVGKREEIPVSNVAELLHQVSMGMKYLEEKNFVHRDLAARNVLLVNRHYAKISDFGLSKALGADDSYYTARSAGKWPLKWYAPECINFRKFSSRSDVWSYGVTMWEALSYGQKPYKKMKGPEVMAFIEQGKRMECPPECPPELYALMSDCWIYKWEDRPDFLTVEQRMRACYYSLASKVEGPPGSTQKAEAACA
Nature of the experiment: Kinase inhibition assay (33P transfer), Zap-70. Particulars: read-out: Zap-1. The procedure, abridged:
as §1

In another experiment the target is T3, Itk (Homo sapiens, UniProt Q08881).
T3 construct: Kinases are expressed as either kinase domains or full length constructs; made in house
T3 sequence (Q08881 1-620): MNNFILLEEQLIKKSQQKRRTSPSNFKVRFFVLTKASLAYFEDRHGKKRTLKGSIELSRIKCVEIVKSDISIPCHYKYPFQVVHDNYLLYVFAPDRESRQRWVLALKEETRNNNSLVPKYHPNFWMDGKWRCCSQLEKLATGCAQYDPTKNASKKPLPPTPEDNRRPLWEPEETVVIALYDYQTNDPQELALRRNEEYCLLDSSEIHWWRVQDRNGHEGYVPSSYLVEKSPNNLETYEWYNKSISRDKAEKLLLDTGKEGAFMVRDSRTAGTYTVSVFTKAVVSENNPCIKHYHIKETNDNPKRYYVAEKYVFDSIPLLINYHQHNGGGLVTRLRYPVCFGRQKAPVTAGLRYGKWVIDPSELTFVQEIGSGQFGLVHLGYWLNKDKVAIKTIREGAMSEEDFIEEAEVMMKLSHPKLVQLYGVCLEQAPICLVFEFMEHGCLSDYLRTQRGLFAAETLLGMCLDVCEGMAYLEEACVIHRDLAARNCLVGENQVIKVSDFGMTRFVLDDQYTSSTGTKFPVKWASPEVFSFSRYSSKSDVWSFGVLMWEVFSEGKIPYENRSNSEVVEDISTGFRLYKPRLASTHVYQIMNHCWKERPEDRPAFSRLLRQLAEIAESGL
Nature of the experiment: Kinase inhibition assay (33P transfer), Itk. Particulars: read-out: Itk-1. In outline:
(§2)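 Using immobilised substrate copolymers (poly(Glu,Tyr) 4:1; poly(Arg,Ser) 3:1) and [33P]ATP, purified fusion kinases were allowed to react; plates were then rinsed in 0.5% phosphoric acid and counted in a scintillation detector. Half-maximal inhibition of label transfer defines IC50.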

A further experiment deals with T4, EGFR (Homo sapiens, UniProt P00533).
T4 construct: Kinases are expressed as either kinase domains or full length constructs; made in house
Nature of the experiment: Kinase inhibition assay (33P transfer), EGFR. Particulars: Table 2, kinase inhibition class; read-out: EGFR-1. In outline:
as §2

In a further experiment the target is T5, ErbB2 (Homo sapiens, UniProt P04626).
T5 construct: Kinases are expressed as either kinase domains or full length constructs; made in house
Nature of the experiment: Kinase inhibition assay (33P transfer), ErbB2. Particulars: read-out: ErbB2-2. An excerpt:
The inhibitor compounds described herein are screened in the following manner. Kinases suitable for use in the following protocol to determine kinase activity of the compounds described herein include, -but are not limited to: Lck, Lyn, Src, Fyn, Syk, Zap-70, Itk, Tec, Btk, EGFR, ErbB2, Kdr, Flt-1, Flt-3, Tek, c-Met, InsR, and AKT.
Kinases are expressed as either kinase domains or full length constructs fused to glutathione S-transferase (GST) or polyHistidine tagged fusion proteins in either E. colior Baculovirus-High Five expression systems. They are purified to near homogeneity by affinity chromatography essentially as previously described (Lehr et al., 1996; Gish et al., 1995). In some instances, kinases are co-expressed or mixed with purified or partially purified regulatory polypeptides prior to measurement of activity.
Kinase activity and inhibition are measured essentially by established protocols (Braunwalder et al., 1996). Briefly, The transfer of ^33PO4 from ATP to the synthetic substrates poly(Glu, Tyr) 4:1 or poly(Arg, Ser) 3:1 attached to the bioactive surface of microtiter plates serves as the basis to evaluate enzyme activity. After an incubation period, the amount of phosphate transferred is measured by first washing the plate with 0.5% phosphoric acid, adding liquid scintillant, and then counting in a liquid scintillation detector. The IC50 is determined by the concentration of compound that causes a 50% reduction in the amount of […] incorporated onto the substrate bound to the plate.

The target of a further experiment is T6, Kdr (Homo sapiens, UniProt P35968).
T6 construct: Kinases are expressed as either kinase domains or full length constructs; made in house
Nature of the experiment: Kinase inhibition assay (33P transfer), Kdr. Particulars: read-out: KDR-1. The procedure, abridged:
as §1

A further experiment concerns the target T7, c-Met (Homo sapiens, UniProt P08581).
T7 construct: Kinases are expressed as either kinase domains or full length constructs; made in house
Nature of the experiment: Kinase inhibition assay (33P transfer), c-Met. Particulars: Table 2, kinase inhibition class; read-out: Met-1. In outline: as §2

In a further experiment the target is T8, AKT (Homo sapiens, UniProt Q9Y243).
T8 construct: Kinases are expressed as either kinase domains or full length constructs; made in house
Nature of the experiment: Kinase inhibition assay (33P transfer), AKT. Particulars: Table 2, kinase inhibition class; read-out: AKT3-1. The procedure, abridged:
as §1

For the next experiment, the target named is T9, IGFR-1 (Homo sapiens, UniProt P08069).
T9 construct: Kinases are expressed as either kinase domains or full length constructs; made in house
Nature of the experiment: Kinase inhibition assay, IGFR-1 (Table 2). Particulars: Table 2, kinase inhibition class.

The target in a further experiment is T10, PDGFRB (Homo sapiens, UniProt P09619).
T10 construct: Kinases are expressed as either kinase domains or full length constructs; made in house
Nature of the experiment: Kinase inhibition assay (33P transfer), PDGFRB. Particulars: read-out: PDGFRB-1.

T4 sequence (P00533 25-1210, species assumed): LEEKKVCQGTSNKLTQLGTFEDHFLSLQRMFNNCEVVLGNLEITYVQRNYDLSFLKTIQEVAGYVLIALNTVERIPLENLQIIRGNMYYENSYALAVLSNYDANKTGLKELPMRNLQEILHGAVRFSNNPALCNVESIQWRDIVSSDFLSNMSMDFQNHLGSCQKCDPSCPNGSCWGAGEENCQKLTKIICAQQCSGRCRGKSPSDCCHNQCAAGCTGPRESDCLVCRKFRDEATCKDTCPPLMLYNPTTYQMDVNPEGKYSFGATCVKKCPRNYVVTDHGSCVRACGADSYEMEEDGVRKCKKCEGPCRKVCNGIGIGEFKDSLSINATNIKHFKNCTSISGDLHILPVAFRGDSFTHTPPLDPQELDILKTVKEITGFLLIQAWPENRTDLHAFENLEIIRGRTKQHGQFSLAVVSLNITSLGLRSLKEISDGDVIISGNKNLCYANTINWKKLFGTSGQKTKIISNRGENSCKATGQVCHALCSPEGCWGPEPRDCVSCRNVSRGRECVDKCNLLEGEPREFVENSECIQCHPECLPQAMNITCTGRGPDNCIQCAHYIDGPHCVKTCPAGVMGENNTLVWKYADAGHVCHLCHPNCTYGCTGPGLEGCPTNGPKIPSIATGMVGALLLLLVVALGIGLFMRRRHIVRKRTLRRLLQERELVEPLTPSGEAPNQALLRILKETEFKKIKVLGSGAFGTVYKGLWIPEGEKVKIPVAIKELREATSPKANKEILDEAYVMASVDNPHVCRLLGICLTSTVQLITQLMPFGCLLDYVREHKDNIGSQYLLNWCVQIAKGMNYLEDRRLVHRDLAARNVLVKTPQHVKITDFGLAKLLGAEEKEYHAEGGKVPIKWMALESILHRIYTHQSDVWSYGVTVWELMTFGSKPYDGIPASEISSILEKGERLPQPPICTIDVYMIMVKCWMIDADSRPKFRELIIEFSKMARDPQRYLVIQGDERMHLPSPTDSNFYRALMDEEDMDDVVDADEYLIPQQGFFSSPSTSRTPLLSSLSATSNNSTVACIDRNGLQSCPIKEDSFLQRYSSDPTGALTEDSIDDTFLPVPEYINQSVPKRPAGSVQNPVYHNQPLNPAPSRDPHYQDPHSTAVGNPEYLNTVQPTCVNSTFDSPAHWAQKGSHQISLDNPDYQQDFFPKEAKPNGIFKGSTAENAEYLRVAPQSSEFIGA
T9 sequence (P08069 31-1367): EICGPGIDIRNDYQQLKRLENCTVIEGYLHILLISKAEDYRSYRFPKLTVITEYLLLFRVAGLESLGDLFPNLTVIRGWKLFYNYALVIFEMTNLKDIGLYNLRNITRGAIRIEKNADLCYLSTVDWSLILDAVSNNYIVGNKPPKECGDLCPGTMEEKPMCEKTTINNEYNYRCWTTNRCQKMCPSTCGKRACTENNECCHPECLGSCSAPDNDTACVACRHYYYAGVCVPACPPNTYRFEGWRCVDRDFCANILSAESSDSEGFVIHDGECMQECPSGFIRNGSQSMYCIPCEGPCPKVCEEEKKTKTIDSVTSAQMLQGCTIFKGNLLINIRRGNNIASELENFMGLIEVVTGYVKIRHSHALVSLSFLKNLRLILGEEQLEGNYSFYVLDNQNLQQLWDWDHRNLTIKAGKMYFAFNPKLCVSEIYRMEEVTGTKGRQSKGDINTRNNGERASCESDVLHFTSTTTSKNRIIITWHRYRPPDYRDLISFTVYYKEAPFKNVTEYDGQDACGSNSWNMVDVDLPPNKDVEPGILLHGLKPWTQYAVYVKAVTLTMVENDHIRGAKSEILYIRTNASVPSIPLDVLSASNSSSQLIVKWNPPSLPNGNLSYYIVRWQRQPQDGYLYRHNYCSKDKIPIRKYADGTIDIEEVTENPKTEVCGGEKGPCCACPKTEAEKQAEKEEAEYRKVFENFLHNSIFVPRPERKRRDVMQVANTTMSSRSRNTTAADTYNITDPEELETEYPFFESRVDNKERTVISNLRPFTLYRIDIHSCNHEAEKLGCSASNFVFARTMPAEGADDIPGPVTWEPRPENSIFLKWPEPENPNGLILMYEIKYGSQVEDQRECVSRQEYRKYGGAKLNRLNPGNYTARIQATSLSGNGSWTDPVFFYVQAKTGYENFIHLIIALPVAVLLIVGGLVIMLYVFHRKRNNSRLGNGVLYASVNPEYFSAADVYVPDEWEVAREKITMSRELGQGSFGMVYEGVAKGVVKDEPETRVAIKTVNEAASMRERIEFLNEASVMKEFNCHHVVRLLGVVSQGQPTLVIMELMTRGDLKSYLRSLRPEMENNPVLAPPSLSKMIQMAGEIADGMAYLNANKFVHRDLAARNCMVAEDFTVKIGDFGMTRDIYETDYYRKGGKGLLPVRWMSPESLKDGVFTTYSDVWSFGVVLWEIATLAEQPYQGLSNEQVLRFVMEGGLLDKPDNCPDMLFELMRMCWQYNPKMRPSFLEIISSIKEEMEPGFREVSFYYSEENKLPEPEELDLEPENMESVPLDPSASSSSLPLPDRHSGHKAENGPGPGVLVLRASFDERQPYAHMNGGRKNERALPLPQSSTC
T10 sequence (P09619 33-1106, species assumed): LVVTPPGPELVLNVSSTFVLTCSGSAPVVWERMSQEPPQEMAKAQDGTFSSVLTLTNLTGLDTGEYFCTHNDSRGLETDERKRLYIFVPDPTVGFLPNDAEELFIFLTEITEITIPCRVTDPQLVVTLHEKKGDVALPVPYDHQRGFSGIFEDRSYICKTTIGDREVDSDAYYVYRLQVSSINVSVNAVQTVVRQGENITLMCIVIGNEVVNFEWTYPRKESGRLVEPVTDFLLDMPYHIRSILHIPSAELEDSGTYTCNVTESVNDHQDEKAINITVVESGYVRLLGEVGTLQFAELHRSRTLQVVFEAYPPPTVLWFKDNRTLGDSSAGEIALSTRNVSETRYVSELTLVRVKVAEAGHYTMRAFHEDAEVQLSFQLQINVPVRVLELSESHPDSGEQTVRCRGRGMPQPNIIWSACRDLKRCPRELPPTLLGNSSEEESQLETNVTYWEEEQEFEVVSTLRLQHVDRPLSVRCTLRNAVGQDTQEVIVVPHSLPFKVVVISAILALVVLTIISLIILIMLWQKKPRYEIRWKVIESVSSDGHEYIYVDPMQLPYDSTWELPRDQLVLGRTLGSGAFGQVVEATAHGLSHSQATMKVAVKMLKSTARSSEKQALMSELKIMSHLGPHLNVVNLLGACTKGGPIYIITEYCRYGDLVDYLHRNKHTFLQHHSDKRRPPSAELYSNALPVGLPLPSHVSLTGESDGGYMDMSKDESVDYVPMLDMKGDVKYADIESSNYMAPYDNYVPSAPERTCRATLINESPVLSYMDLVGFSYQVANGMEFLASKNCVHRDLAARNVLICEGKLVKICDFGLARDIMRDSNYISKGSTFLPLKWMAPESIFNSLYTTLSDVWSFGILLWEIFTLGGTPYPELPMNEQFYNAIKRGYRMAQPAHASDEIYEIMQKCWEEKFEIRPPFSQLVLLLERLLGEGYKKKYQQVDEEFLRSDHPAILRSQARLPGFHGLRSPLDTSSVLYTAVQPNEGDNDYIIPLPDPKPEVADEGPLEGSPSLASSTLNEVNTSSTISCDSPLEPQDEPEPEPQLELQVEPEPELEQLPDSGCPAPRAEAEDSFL
T5 sequence (P04626 23-1255, species assumed): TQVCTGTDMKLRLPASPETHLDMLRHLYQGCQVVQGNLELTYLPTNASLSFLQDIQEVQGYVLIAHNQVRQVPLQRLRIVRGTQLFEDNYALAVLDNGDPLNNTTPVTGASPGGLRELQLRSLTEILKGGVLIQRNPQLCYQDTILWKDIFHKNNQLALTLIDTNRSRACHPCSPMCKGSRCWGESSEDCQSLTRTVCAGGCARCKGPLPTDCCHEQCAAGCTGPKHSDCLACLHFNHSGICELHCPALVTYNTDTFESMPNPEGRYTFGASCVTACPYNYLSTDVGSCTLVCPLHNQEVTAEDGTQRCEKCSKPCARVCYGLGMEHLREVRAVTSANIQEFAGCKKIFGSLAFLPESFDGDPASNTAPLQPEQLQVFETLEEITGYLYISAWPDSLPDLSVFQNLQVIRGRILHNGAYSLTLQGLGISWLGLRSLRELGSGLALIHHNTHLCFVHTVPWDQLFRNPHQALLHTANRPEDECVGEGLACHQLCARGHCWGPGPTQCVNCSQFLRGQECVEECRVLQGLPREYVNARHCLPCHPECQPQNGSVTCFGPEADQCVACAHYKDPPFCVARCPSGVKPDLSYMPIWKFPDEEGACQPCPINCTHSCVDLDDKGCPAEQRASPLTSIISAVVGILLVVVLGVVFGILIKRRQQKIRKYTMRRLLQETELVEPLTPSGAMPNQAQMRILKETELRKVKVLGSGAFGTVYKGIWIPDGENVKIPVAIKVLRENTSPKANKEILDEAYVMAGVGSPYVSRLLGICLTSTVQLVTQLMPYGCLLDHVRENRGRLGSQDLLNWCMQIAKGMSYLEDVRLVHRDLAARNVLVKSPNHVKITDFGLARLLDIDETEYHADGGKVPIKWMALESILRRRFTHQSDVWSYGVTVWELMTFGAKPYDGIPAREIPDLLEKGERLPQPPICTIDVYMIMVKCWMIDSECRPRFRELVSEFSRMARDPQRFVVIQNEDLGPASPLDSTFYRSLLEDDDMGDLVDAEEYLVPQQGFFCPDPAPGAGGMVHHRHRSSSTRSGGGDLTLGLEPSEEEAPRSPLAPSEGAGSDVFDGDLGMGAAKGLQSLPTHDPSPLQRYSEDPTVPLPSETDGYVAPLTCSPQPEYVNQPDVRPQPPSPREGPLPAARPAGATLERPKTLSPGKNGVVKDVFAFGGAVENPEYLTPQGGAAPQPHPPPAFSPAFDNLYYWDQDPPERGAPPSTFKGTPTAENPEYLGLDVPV

In the case of `CCN(c1ccccc1)c1ncnc(Nc2cc(OC)c(OC)c(OC)c2)n1` [Compound 536], the IC50 was 1.05 to 6.29 µM at Lck; > 11.8 µM at Zap-70; > 11.8 µM at Itk; < 1.05 µM on EGFR; 1.05 to 6.29 µM at ErbB2; < 1.05 µM on Kdr. Further, the IC50 on c-Met is < 1.05 µM; on AKT it was > 11.8 µM; against IGFR-1, 1.05 to 6.29 µM; on PDGFRB it was 1.05 to 6.29 µM.

For the molecule `CCN(c1cccc(C)c1)c1ncnc(Nc2cc(OC)c(OC)c(OC)c2)n1` [Compound 537], the IC50 on Lck was < 1.01 µM; on Zap-70, > 11.4 µM; on Itk, 8.85 to 11.4 µM; on EGFR, < 1.01 µM; at ErbB2, 1.01 to 6.07 µM; on Kdr it was < 1.01 µM. Besides, the IC50 at c-Met was 1.01 to 6.07 µM; on AKT, > 11.4 µM; against IGFR-1, 1.01 to 6.07 µM; on PDGFRB it was 1.01 to 6.07 µM.

As to `CCN(c1ccc(C)cc1)c1ncnc(Nc2cc(OC)c(OC)c(OC)c2)n1` [Compound 538], the IC50 was 1.01 to 6.07 µM on Lck; > 11.4 µM on Zap-70; 8.85 to 11.4 µM at Itk; < 1.01 µM at EGFR; 1.01 to 6.07 µM at ErbB2; < 1.01 µM on Kdr. The IC50 is < 1.01 µM at c-Met, > 11.4 µM at AKT, < 1.01 µM on IGFR-1 and 1.01 to 6.07 µM at PDGFRB.

`Brc1cccc(Nc2ncnc(Nc3cccc(Br)c3)n2)c1` [Compound 539]: the IC50 at Lck was 8.31 to 10.7 µM; on Zap-70 it was 0.95 to 5.7 µM; at Itk, 8.31 to 10.7 µM; on EGFR, < 0.95 µM; on ErbB2, 0.95 to 5.7 µM; at Kdr, 0.95 to 5.7 µM. The IC50 was in the range of 8.31 to 10.7 µM at c-Met, 8.31 to 10.7 µM at AKT, 5.7 to 8.31 µM on IGFR-1 and 8.31 to 10.7 µM on PDGFRB.

Consider `COC(=O)Cc1cccc(Nc2ncnc(Nc3cccc(Br)c3)n2)c1` [Compound 540], for which the IC50 was 0.966 to 5.79 µM on Lck; > 10.9 µM at Zap-70; 8.45 to 10.9 µM at Itk; < 0.966 µM at EGFR; 0.966 to 5.79 µM on ErbB2; 5.79 to 8.45 µM on Kdr. The IC50 at c-Met was 5.79 to 8.45 µM; on AKT it was > 10.9 µM; at IGFR-1 it was < 0.966 µM; at PDGFRB, 8.45 to 10.9 µM.

For `O=C(O)Cc1cccc(Nc2ncnc(Nc3cccc(Br)c3)n2)c1` [Compound 541], the IC50 at Lck is > 11.2 µM; at Zap-70, > 11.2 µM; on Itk it was 8.74 to 11.2 µM; at EGFR, < 0.999 µM; at ErbB2, < 0.999 µM; at Kdr, 0.999 to 6 µM. Further, the IC50 at c-Met was 8.74 to 11.2 µM; on AKT, > 11.2 µM; against IGFR-1, 0.999 to 6 µM; at PDGFRB, 0.999 to 6 µM.

For the molecule `COC(=O)Cc1cccc(Nc2ncnc(Nc3ccc(C)c(O)c3)n2)c1` [Compound 542], the IC50 at Lck was 1.09 to 6.57 µM; at Zap-70, > 12.3 µM; on Itk, 1.09 to 6.57 µM; on EGFR, 1.09 to 6.57 µM; on ErbB2, 1.09 to 6.57 µM; on Kdr it was < 1.09 µM. The IC50 on c-Met was 9.58 to 12.3 µM; at AKT, > 12.3 µM; against IGFR-1, 1.09 to 6.57 µM; on PDGFRB, 1.09 to 6.57 µM.

For the molecule `Cc1ccc(Nc2ncnc(Nc3cccc(CC(=O)O)c3)n2)cc1O` [Compound 543], the IC50 on Lck was 6.83 to 9.96 µM; on Zap-70, > 12.8 µM; on Itk it was > 12.8 µM; on EGFR, < 1.14 µM; on ErbB2, 1.14 to 6.83 µM; at Kdr, < 1.14 µM. Also, the IC50 on c-Met was > 12.8 µM; at AKT, > 12.8 µM; on IGFR-1, > 12.8 µM; at PDGFRB it was 1.14 to 6.83 µM.

Take `Nc1nc2ccccc2n1-c1ncnc(Nc2cccc(CC(=O)O)c2)n1` [Compound 544]: the IC50 was > 12.5 µM on Lck; > 12.5 µM on Zap-70; > 12.5 µM on Itk; > 12.5 µM on EGFR; > 12.5 µM at ErbB2; < 1.11 µM at Kdr. Further, the IC50 is > 12.5 µM at c-Met, > 12.5 µM on AKT, < 1.11 µM against IGFR-1 and 1.11 to 6.64 µM on PDGFRB.

On to `COC(=O)Cc1cccc(Nc2ncnc(-n3c(NCc4ccccc4)nc4ccccc43)n2)c1` [Compound 545], for which the IC50 is 0.859 to 5.16 µM at Lck; > 9.67 µM on Zap-70; > 9.67 µM at Itk; 0.859 to 5.16 µM on EGFR; 7.52 to 9.67 µM on ErbB2; < 0.859 µM on Kdr. Moreover, the IC50 on c-Met was > 9.67 µM; at AKT it was > 9.67 µM; against IGFR-1, > 9.67 µM; at PDGFRB it was < 0.859 µM.

In the case of `COC(=O)Cc1cccc(Nc2ncnc(-n3c(N)nc4ccccc43)n2)c1` [Compound 546], the IC50 at Lck is 1.07 to 6.39 µM; on Zap-70 it was 9.32 to 12 µM; on Itk it was 1.07 to 6.39 µM; on EGFR, 6.39 to 9.32 µM; on ErbB2 it was 6.39 to 9.32 µM; at Kdr, < 1.07 µM. Also, the IC50 is 6.39 to 9.32 µM at c-Met, 9.32 to 12 µM at AKT, < 1.07 µM against IGFR-1 and 1.07 to 6.39 µM on PDGFRB.

For `COC(=O)Cc1cccc(Nc2ncnc(-n3c(NCc4ccccn4)nc4ccccc43)n2)c1` [Compound 547], the IC50 at Lck was > 9.65 µM; on Zap-70, > 9.65 µM; at Itk, > 9.65 µM; on EGFR, > 9.65 µM; on ErbB2 it was > 9.65 µM; at Kdr, < 0.857 µM. The IC50 on c-Met, at AKT, against IGFR-1 and at PDGFRB was > 9.65 µM each time.

For the origin of these results see patent US7074789B2, “Kinase inhibitors” (Amgen Inc., priority 1999, dated 2006).
